Some test systems named below: SNB-19; SK-MEL-5; SK-MEL-28; SF-268; 786-0; U-251; MDA-MB-435; CAKI-1; HCC 2998; UACC-257; SK-OV-3; HCT-116; T47D; M14; IGROV-1; SK-MEL-2; A549; LOX IMVI; NCI-H23; NCI-H226.
Holding throughout (assay): growth of human tumour cells (NCI), 48 h

The structures appear in SMILES notation. Values joined by “and” are separate entries in the source; they are usually repeats but may differ in a detail not shown here. Equal values may be shown once.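 How tested: cells in 96-well plates exposed to compound for 48 hours at five concentrations. The concentration for 50% growth inhibition is given as GI50.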 Active and inactive are the calls of the source. Cut-off read from the data, not from the text of the source: active = GI50 up to about 1.1 µM and inactive = higher. A value given as a limit tells only on which side of the number the result lay.

Consider `CNC(=S)N/N=C(\C)c1cc(OC)c(OC)cc1O`, for which the GI50 in the experiment on SNB-19, with SK-MEL-5, with SK-MEL-28, with SF-268, in the experiment on 786-0 and in the experiment on U-251 was > 100 µM (inactive) throughout. Further, the GI50 with MDA-MB-435, in the experiment with CAKI-1, with HCC 2998, in the experiment on UACC-257, in the experiment with SK-OV-3 and in the experiment on HCT-116 was > 100 µM (inactive) each time. Moreover, the GI50 in the experiment on T47D, in the experiment with M14, in the experiment on IGROV-1, with SK-MEL-2 and in the experiment on A549 was > 100 µM (inactive) each time.
Turning to `COc1ccc(-c2nc(SCC(=O)N/N=C/c3ccc([N+](=O)[O-])cc3)[nH]c2-c2ccc(OC)cc2)cc1`, the GI50 is 24.4 µM (inactive) with SNB-19; 6.27 µM (inactive) in the experiment on SK-MEL-5; 21.7 µM (inactive) in the experiment on SK-MEL-28; 25.7 µM (inactive) in the experiment on SF-268; 20 µM (inactive) in the experiment on 786-0; 11.7 µM (inactive) in the experiment on U-251. Also, the GI50 with MDA-MB-435 is 3.24 µM (inactive); in the experiment on CAKI-1 it was 28.1 µM (inactive); in the experiment with HCC 2998 it was 12.1 µM (inactive); with UACC-257, 16.4 µM (inactive); with LOX IMVI, 14 µM (inactive); in the experiment on SK-OV-3, 20.2 µM (inactive). Also, the GI50 is 8.49 µM (inactive) in the experiment on HCT-116; 15.8 µM (inactive) in the experiment with T47D; 12.2 µM (inactive) with M14; 21.9 µM (inactive) in the experiment on NCI-H23; 10.8 µM (inactive) in the experiment on IGROV-1; 6.47 µM (inactive) with SK-MEL-2. For the same compound, in the experiment on A549, the GI50 is 6.95 µM (inactive).
As for `O=C(O)C1CCCN1Cc1ccc2c(c1)OCO2` (stereo not given), the GI50 in the experiment on SNB-19, in the experiment on NCI-H226, with SK-MEL-5, in the experiment on SK-MEL-28, with SF-268 and in the experiment with 786-0 was > 100 µM (inactive) each time. In addition, the GI50 in the experiment on U-251, in the experiment with MDA-MB-435, in the experiment on CAKI-1, in the experiment with UACC-257, in the experiment on LOX IMVI and in the experiment on SK-OV-3 was > 100 µM (inactive) each time. In addition, the GI50 in the experiment with HCT-116, in the experiment on T47D, in the experiment with M14, in the experiment with NCI-H23, with IGROV-1 and in the experiment on SK-MEL-2 was > 100 µM (inactive) throughout. Further, in the experiment with A549, the GI50 was > 100 µM (inactive).
Regarding `COc1cc(OC)nc(NC(=O)NS(=O)(=O)c2cccc3ncn(C)c(=O)c23)n1`, the GI50 in the experiment with SNB-19, with NCI-H226, in the experiment on SK-MEL-5, in the experiment on SF-268, with 786-0 and in the experiment on U-251 was > 100 µM (inactive) throughout. For the same compound, the GI50 with MDA-MB-435, in the experiment with CAKI-1, with UACC-257, in the experiment on LOX IMVI, in the experiment on SK-OV-3 and in the experiment with HCT-116 was > 100 µM (inactive) throughout. In addition, the GI50 with T47D, in the experiment with M14, with NCI-H23, in the experiment with IGROV-1, in the experiment with SK-MEL-2 and in the experiment with A549 was > 100 µM (inactive) each time.
Regarding `CC(=O)O[C@H]1CC2C(C3CC[C@H](C(C)CCC(N)=O)[C@]31C)[C@H](OC(C)=O)C[C@@H]1CC3(CC[C@]21C)OOC1(CCC(C)CC1)OO3` (stereo not given in full), the GI50 in the experiment with NCI-H226 is 1.47 µM (inactive) and 2.09 µM (inactive); with SK-MEL-5 it was 1.74 µM (inactive) and 2.96 µM (inactive); in the experiment with SF-268 it was 1.62 µM (inactive) and 1.83 µM (inactive); with 786-0, 1.86 µM (inactive) and 1.77 µM (inactive); in the experiment with U-251 it was 1.66 µM (inactive); in the experiment on MDA-MB-435, 2.06 µM (inactive) and 1.61 µM (inactive). For the same compound, the GI50 in the experiment with CAKI-1 is 2.29 µM (inactive) and 1.71 µM (inactive); in the experiment on HCC 2998, 2.06 µM (inactive) and 2.38 µM (inactive); in the experiment with UACC-257, 5.37 µM (inactive) and 4.6 µM (inactive); in the experiment on LOX IMVI it was 1.83 µM (inactive) and 1.92 µM (inactive); in the experiment on HCT-116, 1.94 µM (inactive) and 2.26 µM (inactive); in the experiment on T47D it was 1.49 µM (inactive) and 2.01 µM (inactive). Further, the GI50 in the experiment with M14 is 2.22 µM (inactive) and 2.94 µM (inactive); in the experiment with NCI-H23, 1.74 µM (inactive) and 2.23 µM (inactive); in the experiment on SK-MEL-2, 1.91 µM (inactive); in the experiment with A549 it was 1.24 µM (inactive) and 1.79 µM (inactive).
For the compound `CCCOC(=O)C1C2CCC(O2)C1C(=O)O` (stereo not given), the GI50 in the experiment with SNB-19, with NCI-H226, with SK-MEL-5, with SK-MEL-28, in the experiment on SF-268 and with 786-0 was > 100 µM (inactive) in each case. Also, the GI50 is > 100 µM (inactive) in the experiment with U-251; > 100 µM (inactive) in the experiment with MDA-MB-435; > 100 µM (inactive) with CAKI-1; > 100 µM (inactive) in the experiment with UACC-257; > 100 µM (inactive) in the experiment with LOX IMVI; 61 µM (inactive) in the experiment on SK-OV-3. Further, the GI50 with HCT-116, in the experiment on T47D, in the experiment on M14, with NCI-H23, in the experiment on IGROV-1 and in the experiment with SK-MEL-2 was > 100 µM (inactive) in each case. In addition, in the experiment on A549, the GI50 is > 100 µM (inactive).
Turning to `C=C1CC2(CCCC3(CC(=C)C(=O)O3)C2(C)C)OC1=O` (stereo not given), the GI50 in the experiment with SNB-19 is 17.3 µM (inactive); in the experiment on NCI-H226, 2.22 µM (inactive); with SK-MEL-5 it was 14.8 µM (inactive); with SK-MEL-28, 2.05 µM (inactive); with SF-268, 19.2 µM (inactive); in the experiment on 786-0 it was 1.81 µM (inactive). The GI50 in the experiment on U-251 is 1.42 µM (inactive); with MDA-MB-435 it was 2.75 µM (inactive); with CAKI-1, 2.7 µM (inactive); in the experiment on UACC-257, 1.85 µM (inactive); with LOX IMVI, 1.69 µM (inactive); in the experiment with SK-OV-3, 20.5 µM (inactive). Also, the GI50 was 1.44 µM (inactive) in the experiment on HCT-116; 3.33 µM (inactive) in the experiment on T47D; 2.56 µM (inactive) in the experiment with M14; 2.89 µM (inactive) in the experiment on NCI-H23; 8.83 µM (inactive) with IGROV-1; 7.24 µM (inactive) with SK-MEL-2. For the same compound, the GI50 with A549 was 13.8 µM (inactive).
For `Nc1nc2c(ncn2Cc2ccc(CO)cc2)c(=O)[nH]1`, the GI50 in the experiment with SNB-19, with NCI-H226, in the experiment on SK-MEL-5, in the experiment on SK-MEL-28, in the experiment with SF-268 and in the experiment with 786-0 was > 100 µM (inactive) each time. Further, the GI50 in the experiment on U-251, with MDA-MB-435, in the experiment on CAKI-1, in the experiment on UACC-257, in the experiment on LOX IMVI and in the experiment on SK-OV-3 was > 100 µM (inactive) each time. For the same compound, the GI50 in the experiment on HCT-116, in the experiment with T47D, in the experiment on M14, in the experiment on NCI-H23, with IGROV-1 and in the experiment on SK-MEL-2 was > 100 µM (inactive) in each case. In addition, in the experiment with A549, the GI50 is > 100 µM (inactive).
Consider `C[C@@]1(CO)[C@H](O)CC[C@@]2(C)[C@H]1CC[C@H]1C[C@@H]3C[C@@]12CC[C@@]3(O)COC(=O)CN`, for which the GI50 was 11.2 µM (inactive) in the experiment on SK-MEL-5; 100 µM (inactive) with SK-MEL-28; 9.29 µM (inactive) in the experiment with SF-268; 0.923 µM (active) in the experiment on 786-0; 10.6 µM (inactive) in the experiment on U-251; 11.6 µM (inactive) in the experiment with MDA-MB-435. The GI50 was 0.762 µM (active) in the experiment on CAKI-1; 4.23 µM (inactive) in the experiment with HCC 2998; 33.9 µM (inactive) in the experiment with UACC-257; 5.57 µM (inactive) in the experiment with LOX IMVI; 39.4 µM (inactive) with SK-OV-3; 11.4 µM (inactive) in the experiment with T47D. For the same compound, the GI50 is 5.15 µM (inactive) in the experiment with M14, 2.08 µM (inactive) in the experiment on NCI-H23 and 64.9 µM (inactive) in the experiment on SK-MEL-2.
In the case of `CN(C(=O)c1ccc(Cl)cc1)C(=S)N1CCN(c2ccccc2)CC1`, the GI50 with SNB-19 was > 100 µM (inactive); in the experiment on NCI-H226 it was 47.5 µM (inactive); in the experiment with SK-MEL-5 it was 35.5 µM (inactive); with SK-MEL-28, > 100 µM (inactive); in the experiment with SF-268, > 100 µM (inactive); in the experiment on 786-0 it was > 100 µM (inactive). Further, the GI50 was > 100 µM (inactive) with U-251; > 100 µM (inactive) in the experiment with MDA-MB-435; > 100 µM (inactive) in the experiment on HCC 2998; 71.4 µM (inactive) in the experiment with UACC-257; > 100 µM (inactive) with LOX IMVI; > 100 µM (inactive) with T47D. Further, the GI50 is > 100 µM (inactive) with M14; > 100 µM (inactive) in the experiment on NCI-H23; > 100 µM (inactive) with IGROV-1; > 100 µM (inactive) in the experiment with SK-MEL-2; 89.1 µM (inactive) in the experiment on A549.
As for `CCCSc1ccc2[nH]c(N3C(=O)/C(=C/c4ccco4)N=C3c3ccccc3)cc2c1`, the GI50 was > 50 µM (inactive) in the experiment on SNB-19; 9.89 µM (inactive) with SK-MEL-5; 33.7 µM (inactive) with SK-MEL-28; 33 µM (inactive) in the experiment on SF-268; 23.7 µM (inactive) in the experiment with 786-0; 8.71 µM (inactive) with MDA-MB-435. For the same compound, the GI50 was 34.7 µM (inactive) in the experiment with CAKI-1; 18.3 µM (inactive) in the experiment with HCC 2998; 18.2 µM (inactive) with UACC-257; 27.8 µM (inactive) in the experiment on LOX IMVI; 21.8 µM (inactive) in the experiment with HCT-116; 27.6 µM (inactive) with T47D. Also, the GI50 is 21.6 µM (inactive) in the experiment on M14; 34.8 µM (inactive) in the experiment with NCI-H23; 40.1 µM (inactive) with IGROV-1; 10.3 µM (inactive) in the experiment on SK-MEL-2; 25.7 µM (inactive) in the experiment with A549.
